In brackets after ≈: the same amount, converted by molar mass. Activity calls are given as the source filed them. No cut-off for these calls is given here.
Experiments:
Escherichia coli [1] = test: Antibacterial activity against Escherichia coli ATCC 25922 incubated for 16 to 20 hrs using 10^5 CFU/ml bacterial inoculum by broth microdilution method; assay type: functional; conditions: time 16-20 hrs
[2] = Genotoxicity in Salmonella typhimurium TA1535 assessed as number of revertants at 1.6x10^-6 mg/plate incubated for 72 hrs in absence of liver S9 fraction by Ames test (reference value: 14.33 +/- 0.58); assay type: toxicity; conditions: salmonella enterica subsp. enterica serovar typhimurium, s9, 72 h
[3] = Genotoxicity in Salmonella typhimurium TA102 assessed as number of revertants at 1.6x10^-6 mg/plate incubated for 72 hrs in presence of liver S9 fraction by Ames test (reference value: 465.33 +/- 18.04); assay type: toxicity, subcellular; conditions: salmonella enterica subsp. enterica serovar typhimurium, s9, 72 h
[4] = Genotoxicity in Salmonella typhimurium TA1537 assessed as number of revertants at 1x10^-3 mg/plate incubated for 72 hrs in absence of liver S9 fraction by Ames test (reference value: 22.67 +/- 2.52); assay type: toxicity; conditions: salmonella enterica subsp. enterica serovar typhimurium, s9, 72 h
[5] = Genotoxicity in Salmonella typhimurium TA1535 assessed as number of revertants at 1x10^-3 mg/plate incubated for 72 hrs in absence of liver S9 fraction by Ames test (reference value: 14.33 +/- 0.58); assay type: toxicity; conditions: salmonella enterica subsp. enterica serovar typhimurium, s9, 72 h
Escherichia coli [6] = test: Antibacterial activity against Escherichia coli ATCC 25922 incubated for 16 to 20 hrs in presence of 25% foetal bovine serum by broth microdilution method; assay type: functional; conditions: time 16-20 hrs
[7] = Genotoxicity in Salmonella typhimurium TA1535 assessed as number of revertants at 8x10^-6 mg/plate incubated for 72 hrs in absence of liver S9 fraction by Ames test (reference value: 14.33 +/- 0.58); assay type: toxicity; conditions: salmonella enterica subsp. enterica serovar typhimurium, s9, 72 h
Staphylococcus aureus [8] = test: Antibacterial activity against Staphylococcus aureus ATCC 29213 at pH 7.8 incubated for 16 to 20 hrs by broth microdilution method; assay type: functional; conditions: time 16-20 hrs
Staphylococcus aureus [9] = test: Antibacterial activity against Staphylococcus aureus ATCC 29213 at pH 8.6 incubated for 16 to 20 hrs by broth microdilution method; assay type: functional; conditions: time 16-20 hrs
[10] = Genotoxicity in Salmonella typhimurium TA1537 assessed as number of revertants at 4x10^-5 mg/plate incubated for 72 hrs in absence of liver S9 fraction by Ames test (reference value: 22.67 +/- 2.52); assay type: toxicity; conditions: salmonella enterica subsp. enterica serovar typhimurium, s9, 72 h
[11] = Genotoxicity in Salmonella typhimurium TA100 assessed as number of revertants at 2x10^-4 mg/plate incubated for 72 hrs in absence of liver S9 fraction by Ames test (reference value: 221.67 +/- 15.57); assay type: toxicity; conditions: salmonella enterica subsp. enterica serovar typhimurium, s9, 72 h
Escherichia coli [12] = test: Ratio of MBC to MIC for Escherichia coli ATCC 25922; assay type: functional
Escherichia coli [13] = test: Inhibition of protein synthesis in Escherichia coli ATCC 25922 assessed as reduction in protein content at […] measured upto 12 hrs by microporous enzyme labeling method relative to control; assay type: functional
[14] = Genotoxicity in Salmonella typhimurium TA1535 assessed as number of revertants at 4x10^-5 mg/plate incubated for 72 hrs in absence of liver S9 fraction by Ames test (reference value: 14.33 +/- 0.58); assay type: toxicity; conditions: salmonella enterica subsp. enterica serovar typhimurium, s9, 72 h
Staphylococcus aureus [15] = test: Antibacterial activity against Staphylococcus aureus ATCC 29213 at pH 7.2 incubated for 16 to 20 hrs by broth microdilution method; assay type: functional; conditions: time 16-20 hrs
Escherichia coli [16] = test: Antibacterial activity against Escherichia coli ATCC 25922 at pH 7.6 incubated for 16 to 20 hrs by broth microdilution method; assay type: functional; conditions: time 16-20 hrs
[17] = Genotoxicity in Salmonella typhimurium TA1535 assessed as number of revertants at 1x10^-3 mg/plate incubated for 72 hrs in presence of liver S9 fraction by Ames test (reference value: 15.33 +/- 2.52); assay type: toxicity, subcellular; conditions: salmonella enterica subsp. enterica serovar typhimurium, s9, 72 h
[18] = Genotoxicity in Salmonella typhimurium TA1537 assessed as number of revertants at 8x10^-6 mg/plate incubated for 72 hrs in presence of liver S9 fraction by Ames test (reference value: 20 +/- 5); assay type: toxicity, subcellular; conditions: salmonella enterica subsp. enterica serovar typhimurium, s9, 72 h
[19] = Genotoxicity in Salmonella typhimurium TA1537 assessed as number of revertants at 4x10^-5 mg/plate incubated for 72 hrs in presence of liver S9 fraction by Ames test (reference value: 20 +/- 5); assay type: toxicity, subcellular; conditions: salmonella enterica subsp. enterica serovar typhimurium, s9, 72 h
[20] = Genotoxicity in Salmonella typhimurium TA1535 assessed as number of revertants at 2x10^-4 mg/plate incubated for 72 hrs in presence of liver S9 fraction by Ames test (reference value: 15.33 +/- 2.52); assay type: toxicity, subcellular; conditions: salmonella enterica subsp. enterica serovar typhimurium, s9, 72 h
Staphylococcus aureus [21] = test: Antibacterial activity against Staphylococcus aureus ATCC 29213 at pH 7.6 incubated for 16 to 20 hrs by broth microdilution method; assay type: functional; conditions: time 16-20 hrs
Escherichia coli [22] = test: Antibacterial activity against Escherichia coli ATCC 25922 at pH 6.8 incubated for 16 to 20 hrs by broth microdilution method; assay type: functional; conditions: time 16-20 hrs
Escherichia coli [23] = test: Antibacterial activity against Escherichia coli ATCC 25922 incubated for 16 to 20 hrs using 10^3 CFU/ml bacterial inoculum by broth microdilution method; assay type: functional; conditions: time 16-20 hrs
Staphylococcus aureus [24] = test: Antibacterial activity against Staphylococcus aureus ATCC 29213 incubated for 16 to 20 hrs using 10^7 CFU/ml bacterial inoculum by broth microdilution method; assay type: functional; conditions: time 16-20 hrs
Staphylococcus aureus [25] = test: Antibacterial activity against Staphylococcus aureus ATCC 29213 at pH 8.6 incubated for 16 to 20 hrs in presence of 5% foetal bovine serum by broth microdilution method; assay type: functional; conditions: time 16-20 hrs
Escherichia coli [26] = test: Antibacterial activity against Escherichia coli incubated for 16 to 20 hrs by broth microdilution method; assay type: functional; conditions: time 16-20 hrs
[27] = Genotoxicity in Salmonella typhimurium TA102 assessed as number of revertants at 4x10^-5 mg/plate incubated for 72 hrs in presence of liver S9 fraction by Ames test (reference value: 465.33 +/- 18.04); assay type: toxicity, subcellular; conditions: salmonella enterica subsp. enterica serovar typhimurium, s9, 72 h
[28] = Genotoxicity in Salmonella typhimurium TA98 assessed as number of revertants at 4x10^-5 mg/plate incubated for 72 hrs in presence of liver S9 fraction by Ames test (reference value: 43.67+/- 7.1); assay type: toxicity, subcellular; conditions: salmonella enterica subsp. enterica serovar typhimurium, s9, 72 h
[29] = Genotoxicity in Salmonella typhimurium TA1535 assessed as number of revertants at 4x10^-5 mg/plate incubated for 72 hrs in presence of liver S9 fraction by Ames test (reference value: 15.33 +/- 2.52); assay type: toxicity, subcellular; conditions: salmonella enterica subsp. enterica serovar typhimurium, s9, 72 h
[30] = Genotoxicity in Salmonella typhimurium TA100 assessed as number of revertants at 1.6x10^-6 mg/plate incubated for 72 hrs in absence of liver S9 fraction by Ames test (reference value: 221.67 +/- 15.57); assay type: toxicity; conditions: salmonella enterica subsp. enterica serovar typhimurium, s9, 72 h
[31] = Toxicity in Kunming mouse infected with Staphylococcus aureus ATCC 25923 assessed as hyperelastic lung tissue at 20 to 40 mg/kg, iv measured after 1 hr by hematoxylin and eosin staining based microscopic analysis; assay type: organism-based; conditions: in vivo, dose 20-40 mg/kg
Staphylococcus aureus [32] = test: Antibacterial activity against Staphylococcus aureus ATCC 29213 incubated for 16 to 20 hrs using 10^6 CFU/ml bacterial inoculum by broth microdilution method; assay type: functional; conditions: time 16-20 hrs
Staphylococcus aureus [33] = test: Antibacterial activity against Staphylococcus aureus ATCC 25923 infected in kunming mouse assessed as reduction in bacterial load at 20 to 40 mg/kg, iv measured after 1 hr; assay type: functional, organism-based; conditions: dose 20-40 mg/kg
Escherichia coli [34] = test: Antibacterial activity against Escherichia coli ATCC 25922 at pH 8.4 incubated for 16 to 20 hrs by broth microdilution method; assay type: functional; conditions: time 16-20 hrs

Compound `CC[C@H]1OC(=O)C[C@@H](O)[C@H](C)[C@@H](O[C@@H]2O[C@H](C)[C@@H](O)[C@H](N(C)C)[C@H]2O)[C@@H](CCN(C)Cc2cn(-c3cnc4ccccc4c3)nn2)C[C@@H](C)C(=O)/C=C/C(C)=C/[C@@H]1CN1CCCCCC1` has an MIC (Escherichia coli [1]) of 0.5 µg/mL (≈ 0.554 µM), an Activity [2] of 6.67 and an Activity [3] of 449.33. For the same compound, the Activity [4] was 15.33, the Activity [5] was 5 and the MIC (Escherichia coli [6]) was 4 µg/mL. For the same compound, the Activity [7] was 13, the MIC (Staphylococcus aureus [8]) was ≤ 0.0625 µg/mL and the MIC (Staphylococcus aureus [9]) was ≤ 0.0625 µg/mL. The Activity [10] was 19.67, the Activity [11] was 223.33 and the Ratio (Escherichia coli [12]) was 2. For the same compound, the inhibition (Escherichia coli [13]) was 32.1%, the Activity [14] was 6.33 and the MIC (Staphylococcus aureus [15]) was 0.5 µg/mL (≈ 0.554 µM). It also gave an MIC (Escherichia coli [16]) of 0.5 µg/mL (≈ 0.554 µM), an Activity [17] of 11 and an Activity [18] of 17.67. For the same compound, the Activity [19] was 14.67, the Activity [20] was 12.67 and the MIC (Staphylococcus aureus [21]) was 0.25 µg/mL (≈ 0.277 µM). The MIC (Escherichia coli [22]) was 8 µg/mL (≈ 8.87 µM), the MIC (Escherichia coli [23]) was 0.25 µg/mL (≈ 0.277 µM) and the MIC (Staphylococcus aureus [24]) was 0.25 µg/mL (≈ 0.277 µM). For the same compound, the MIC (Staphylococcus aureus [25]) was 0.5 µg/mL, the MIC (Escherichia coli [26]) was 1 µg/mL (≈ 1.11 µM) and the Activity [27] was 433.33. For the same compound, the Activity [28] was 44.67, the Activity [29] was 15 and the Activity [30] was 157.67. The Activity [31] was “Non-Toxic”, the MIC (Staphylococcus aureus [32]) was 0.25 µg/mL (≈ 0.277 µM) and the Activity (Staphylococcus aureus [33]) was “Active”. The MIC (Escherichia coli [34]) was 0.25 µg/mL (≈ 0.277 µM).

— ChEMBL document CHEMBL5126592, “Design, synthesis and activity against drug-resistant bacteria evaluation of C-20, C-23 modified 5-O-mycaminosyltylonolide derivatives” (Eur J Med Chem, 2022)
